Results from the supplement of paper PMC11061612.

Experiments:
Test in all cases: combination Emax (second highest fraction inhibited in the dose matrix, 72 h); higher = more inhibition; extreme values may be limits of the assay
MSTO-211H (Mesothelioma) = system: MSTO-211H (Mesothelioma)
In short: (§1)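 Bliss excess equals the observed combination effect minus the expected value EA + EB − EA·EB, where EA and EB are the effects of each agent alone. Combination Emax is the second-highest inhibition within the matrix. Inhibition was scaled from CellTiter-Glo 2.0 luminescence, with 0 set by vehicle wells and 1 by blank wells, after 72 hours of two-drug dosing of cells plated in 1536-well plates.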

[1] = system: HCT-116 (Colorectal Carcinoma)
In short: as §1

[2] = system: HLE (Hepatocellular Carcinoma)
In short: as §1

[3] = system: NOMO-1 (Acute Myeloid Leukemia)
In short: as §1

[4] = system: CAL-39 (Other Solid Carcinomas)
In short: as §1

HCC38 (Breast Carcinoma) = system: HCC38 (Breast Carcinoma)
In short: as §1

[5] = system: SLVL (B-Cell Non-Hodgkin's Lymphoma)
In short: as §1

[6] = system: EFM-192A (Breast Carcinoma)
In short: as §1

SK-MEL-1 (Melanoma) = system: SK-MEL-1 (Melanoma)
In short: as §1

[7] = system: PA-TU-8902 (Pancreatic Carcinoma)
In short: as §1

[8] = system: 647-V (Bladder Carcinoma)
In short: as §1

[9] = system: WSU-DLCL2 (B-Cell Non-Hodgkin's Lymphoma)
In short: as §1

[10] = system: D-283MED (Other Solid Carcinomas)
In short: as §1

[11] = system: ETK-1 (Biliary Tract Carcinoma)
In short: as §1

EW-22 (Ewing's Sarcoma) = system: EW-22 (Ewing's Sarcoma)
In short: as §1

H4 (Low Grade Glioma) = system: H4 (Low Grade Glioma)
In short: as §1

[12] = system: U-118-MG (Low Grade Glioma)
In short: as §1

[13] = system: DOK (Oral Cavity Carcinoma)
In short: as §1

[14] = system: RCC10RGB (Kidney Carcinoma)
In short: as §1

[15] = system: SW948 (Colorectal Carcinoma)
In short: as §1

| SMILES | combination Emax (MSTO-211H (Mesothelioma)) | combination Emax [1] | combination Emax [2] | combination Emax [3] | combination Emax [4] | combination Emax (HCC38 (Breast Carcinoma)) | combination Emax [5] | combination Emax [6] | combination Emax (SK-MEL-1 (Melanoma)) | combination Emax [7] | combination Emax [8] | combination Emax [9] | combination Emax [10] | combination Emax [11] | combination Emax (EW-22 (Ewing's Sarcoma)) | combination Emax (H4 (Low Grade Glioma)) | combination Emax [12] | combination Emax [13] | combination Emax [14] | combination Emax [15] |
| --- | --- | --- | --- | --- | --- | --- | --- | --- | --- | --- | --- | --- | --- | --- | --- | --- | --- | --- | --- | --- |
| CC1(C)CCC(CN2CCN(c3ccc(C(=O)NS(=O)(=O)c4ccc(NCC5CCOCC5)c([N+](=O)[O-])c4)c(Oc4cnc5[nH]ccc5c4)c3)CC2)=C(c2ccc(Cl)cc2)C1 [Venetoclax] + C[C@@H]1COCCN1C2=NC(=NC(=C2)C3(CC3)[S@](=N)(=O)C)C4=C5C=CNC5=NC=C4 [AZD6738] (first compound max 1 µM, 7x7, partner max 10 µM) | 0.596 | 0.671 | 0.642 | 0.973 | 0.397 | 0.531 | 0.939 | 0.299 | 0.391 | 0.344 | 0.698 | 0.969 | 0.954 | 0.723 | 0.929 | 0.768 | 0.648 | 0.414 | 0.5 | 0.595 |
| CC1(C)CCC(CN2CCN(c3ccc(C(=O)NS(=O)(=O)c4ccc(NCC5CCOCC5)c([N+](=O)[O-])c4)c(Oc4cnc5[nH]ccc5c4)c3)CC2)=C(c2ccc(Cl)cc2)C1 [Venetoclax] + C[C@@H](Nc1cc(F)cc(F)c1)c1cc(C(=O)N(C)C)cc2c(=O)cc(N3CCOCC3)oc12 [AZD8186] (first compound max 1 µM, 7x7, partner max 3 µM) | 0.207 | 0.0935 | 0.504 | 0.931 | 0.841 | 0.16 | 0.746 | 0.178 | 0.198 | 0.115 | 0.17 | 0.888 | 0.615 | 0.212 | 0.881 | 0.383 | 0.284 | 0.188 | 0.447 | 0.264 |
| CC1(C)CCC(CN2CCN(c3ccc(C(=O)NS(=O)(=O)c4ccc(NCC5CCOCC5)c([N+](=O)[O-])c4)c(Oc4cnc5[nH]ccc5c4)c3)CC2)=C(c2ccc(Cl)cc2)C1 [Venetoclax] + Cc1cc2ncnn2cc1Nc1ncc2c(n1)n(C1CCOCC1)c(=O)n2C [AZD7648] (first compound max 1 µM, 7x7, partner max 10 µM) | 0.22 | 0.259 | 0.215 | 0.922 | 0.247 | 0.165 | 0.709 | 0.25 | 0.308 | 0.236 | 0.209 | 0.442 | 0.673 | 0.253 | 0.842 | 0.322 | 0.412 | 0.247 | 0.205 | 0.459 |
| CC1(C)CCC(CN2CCN(c3ccc(C(=O)NS(=O)(=O)c4ccc(NCC5CCOCC5)c([N+](=O)[O-])c4)c(Oc4cnc5[nH]ccc5c4)c3)CC2)=C(c2ccc(Cl)cc2)C1 [Venetoclax] + Cn1cnc2c(F)c(Nc3ccc(Br)cc3Cl)c(C(=O)NOCCO)cc21 [Selumetinib] (first compound max 1 µM, 7x7, partner max 3 µM) | 0.172 | 0.506 | 0.191 | 0.994 | 0.535 | 0.109 | 0.735 | 0.11 | 0.872 | 0.26 | 0.133 | 0.375 | 0.523 | 0.165 | 0.855 | 0.232 | 0.181 | 0.407 | 0.447 | 0.577 |
